The source of these data is ChEMBL document CHEMBL1201862, “PubChem BioAssay data set” (2004).

The term IC50 denotes the point on the concentration scale where inhibition reaches its midpoint. The CC50 is the concentration giving 50% cytotoxicity. For orientation: EC50 means the concentration at which the effect is half-maximal.

Assay [1] deals with T1, Apoptotic protease-activating factor 1 (Homo sapiens, UniProt O14727).
T1 sequence (O14727 whole entry): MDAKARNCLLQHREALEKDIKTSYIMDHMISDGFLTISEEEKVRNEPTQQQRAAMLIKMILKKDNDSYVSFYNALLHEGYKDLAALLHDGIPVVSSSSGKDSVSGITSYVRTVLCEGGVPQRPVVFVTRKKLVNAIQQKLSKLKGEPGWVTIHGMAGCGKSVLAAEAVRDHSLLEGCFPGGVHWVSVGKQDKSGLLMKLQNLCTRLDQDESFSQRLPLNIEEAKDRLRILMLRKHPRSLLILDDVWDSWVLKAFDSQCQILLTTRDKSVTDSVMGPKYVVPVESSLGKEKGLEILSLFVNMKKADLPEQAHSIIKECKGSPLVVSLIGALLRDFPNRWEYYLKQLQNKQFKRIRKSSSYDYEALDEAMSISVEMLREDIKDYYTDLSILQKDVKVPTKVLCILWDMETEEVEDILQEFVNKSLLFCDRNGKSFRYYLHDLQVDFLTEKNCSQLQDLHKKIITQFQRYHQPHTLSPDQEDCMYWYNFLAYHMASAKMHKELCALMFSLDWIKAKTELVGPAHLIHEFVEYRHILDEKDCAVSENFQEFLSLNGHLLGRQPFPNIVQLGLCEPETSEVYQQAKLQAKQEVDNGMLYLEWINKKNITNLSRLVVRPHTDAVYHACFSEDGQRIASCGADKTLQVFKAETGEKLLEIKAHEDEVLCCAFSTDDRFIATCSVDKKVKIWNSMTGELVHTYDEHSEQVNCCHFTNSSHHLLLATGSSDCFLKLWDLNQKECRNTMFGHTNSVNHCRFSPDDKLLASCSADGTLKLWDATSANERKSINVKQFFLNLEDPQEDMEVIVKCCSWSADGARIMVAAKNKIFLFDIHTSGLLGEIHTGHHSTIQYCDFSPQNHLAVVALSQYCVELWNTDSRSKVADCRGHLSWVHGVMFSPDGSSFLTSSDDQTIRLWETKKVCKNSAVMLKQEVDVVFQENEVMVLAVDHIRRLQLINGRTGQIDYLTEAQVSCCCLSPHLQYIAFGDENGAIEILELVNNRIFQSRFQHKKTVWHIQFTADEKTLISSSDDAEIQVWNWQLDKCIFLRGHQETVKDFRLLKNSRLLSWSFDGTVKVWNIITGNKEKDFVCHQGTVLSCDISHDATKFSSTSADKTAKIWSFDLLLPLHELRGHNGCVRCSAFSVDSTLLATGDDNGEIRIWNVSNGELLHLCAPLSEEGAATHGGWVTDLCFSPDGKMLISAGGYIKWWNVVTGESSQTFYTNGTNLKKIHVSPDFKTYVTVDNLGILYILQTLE
In kind it is functional.

Assay [2] can be described thus: viability of uninfected HEp-2 cells – cell-based, HTS, cytotoxicity control for RSV inhibitor project, dose response (AID 2410). It is filed as functional. The following applies: human respiratory syncytial virus.
Assay [3] has as its target T2, Ubiquitin-conjugating enzyme E2 N (Homo sapiens, UniProt P61088).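 Also: Dose-response confirmation in a TR-FRET assay detecting UBC13-driven polyubiquitin chain formation, inhibition measured.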
T2 sequence (P61088 whole entry): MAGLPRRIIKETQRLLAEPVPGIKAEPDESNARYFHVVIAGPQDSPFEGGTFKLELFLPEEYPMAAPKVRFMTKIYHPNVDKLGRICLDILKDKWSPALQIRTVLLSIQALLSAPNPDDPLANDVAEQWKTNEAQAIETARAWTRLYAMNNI
In kind it is functional.

For assay [4], the target named is T3, Type-1 angiotensin II receptor (Homo sapiens, UniProt P30556).
T3 sequence (P30556 whole entry): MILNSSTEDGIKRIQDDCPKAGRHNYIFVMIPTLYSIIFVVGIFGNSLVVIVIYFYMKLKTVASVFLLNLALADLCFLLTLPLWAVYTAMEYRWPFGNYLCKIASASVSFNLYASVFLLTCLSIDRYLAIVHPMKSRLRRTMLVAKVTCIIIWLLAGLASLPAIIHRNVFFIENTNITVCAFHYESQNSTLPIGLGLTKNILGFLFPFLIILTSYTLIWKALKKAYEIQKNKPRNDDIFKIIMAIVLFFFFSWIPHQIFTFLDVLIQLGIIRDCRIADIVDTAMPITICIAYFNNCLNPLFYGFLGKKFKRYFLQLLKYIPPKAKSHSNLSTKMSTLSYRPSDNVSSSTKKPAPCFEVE
The assay can be described thus: agonist activity at AGTR1 – cell-based, uHTS hits, selectivity assay for APJ receptor agonist project, dose response (AID 488865).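 Also: beta-arrestin recruitment to AT1 measured by enzyme fragment complementation luminescence.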 It is filed as functional.

Assay [5] deals with 5-hydroxytryptamine receptor 5A (Homo sapiens, UniProt P47898). The assay can be described thus: Counterscreen for agonists of OPRM1-OPRD1 heterodimerization: luminescence-based cell-based high throughput dose response assay to identify agonists of 5-hydroxytryptamine (serotonin) 5A receptor (HTR5A). [Related pubchem assays (depositor defined):AID504326, AID504355, AID504692, AID504904, AID504905]. It is filed as functional.

Assay [6] has as its target Delta-type opioid receptor (Homo sapiens, UniProt P41143). The assay can be described thus: Counterscreen for agonists of heterodimerization of the mu 1 (OPRM1) and delta 1 (OPRD1) opioid receptors: Luminescence-based cell-based high throughput dose response assay to identify agonists of OPRD1 homodimerization. [Related pubchem assays (depositor defined):AID504326, AID504355, AID504692, AID504904, AID504905]. In kind it is functional. (In general: Counterscreens check selectivity or assay interference.)

Assay [7] deals with T4, Short transient receptor potential channel 4 (Mus musculus, UniProt Q9QUQ5).
T4 sequence (Q9QUQ5 whole entry): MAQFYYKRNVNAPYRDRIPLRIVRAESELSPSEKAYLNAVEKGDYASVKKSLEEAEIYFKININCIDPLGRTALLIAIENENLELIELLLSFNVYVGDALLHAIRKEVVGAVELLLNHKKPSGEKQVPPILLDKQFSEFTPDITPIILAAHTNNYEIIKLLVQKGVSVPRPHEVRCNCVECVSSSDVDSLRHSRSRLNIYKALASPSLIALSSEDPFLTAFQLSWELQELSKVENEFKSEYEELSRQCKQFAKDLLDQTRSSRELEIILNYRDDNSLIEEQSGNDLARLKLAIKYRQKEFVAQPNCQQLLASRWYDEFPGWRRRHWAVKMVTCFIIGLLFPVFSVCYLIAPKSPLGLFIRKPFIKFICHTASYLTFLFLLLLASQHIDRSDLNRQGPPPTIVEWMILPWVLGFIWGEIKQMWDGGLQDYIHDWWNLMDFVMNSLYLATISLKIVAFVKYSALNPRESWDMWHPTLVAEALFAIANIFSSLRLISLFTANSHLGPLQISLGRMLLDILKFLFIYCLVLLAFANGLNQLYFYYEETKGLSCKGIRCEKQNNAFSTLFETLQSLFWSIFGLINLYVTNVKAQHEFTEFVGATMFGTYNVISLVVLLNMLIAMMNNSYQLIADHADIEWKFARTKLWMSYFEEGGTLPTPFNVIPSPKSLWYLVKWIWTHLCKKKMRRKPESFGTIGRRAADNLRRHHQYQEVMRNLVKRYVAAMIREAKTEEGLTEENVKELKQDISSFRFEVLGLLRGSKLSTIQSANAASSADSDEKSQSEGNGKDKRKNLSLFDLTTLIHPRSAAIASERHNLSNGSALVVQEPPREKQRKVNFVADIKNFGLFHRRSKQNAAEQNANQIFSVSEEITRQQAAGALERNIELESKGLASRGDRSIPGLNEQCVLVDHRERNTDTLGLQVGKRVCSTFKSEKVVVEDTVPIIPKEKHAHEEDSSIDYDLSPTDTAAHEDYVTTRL
The assay can be described thus: calcium entry via TRPC4 opening agents – cell-based, HEK293 TRPC4/mu-opioid, Fluo-4 calcium, dose response (AID 434937). In kind it is functional.

In assay [8] the target is Mu-type opioid receptor (Homo sapiens, UniProt P35372). The assay can be described thus: Counterscreen for agonists of heterodimerization of the mu 1 (OPRM1) and delta 1 (OPRD1) opioid receptors: Luminescence-based cell-based high throughput dose response assay to identify agonists of OPRM1 homodimerization. It is filed as functional.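 Also: U2OS cells expressing OPRM1 and beta-arrestin as split beta-galactosidase partners.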
The target of assay [9] is T5, Cannabinoid receptor 1 (Homo sapiens, UniProt P21554). The assay can be described thus: SAR analysis of agonists of the Cannabinoid Receptor 1 using an Image-Based Assay - Set 3. [Related pubchem assays (depositor defined):AID1961, AID1965]. It is filed as functional.
Assay [10] concerns the target T6, G-protein coupled receptor 35 (Homo sapiens, UniProt Q9HC97). The assay can be described thus: SAR analysis of Agonists of the GPR35 Receptor using an Image-Based Assay - Set 3. [Related pubchem assays (depositor defined):AID1961, AID1965]. In kind it is functional.
In assay [11] the target is G-protein coupled receptor 55 (Homo sapiens, UniProt Q9Y2T6). The assay can be described thus: SAR analysis of selective Agonists of GPR55 using an Image-Based Assay - Set 2. [Related pubchem assays (depositor defined):AID1961, AID1965]. It is filed as functional.
For assay [12], the target named is T5, Cannabinoid receptor 1. The assay can be described thus: SAR analysis of antagonists of the Cannabinoid Receptor 1 using an Image-Based Assay - Set 3. [Related pubchem assays (depositor defined):AID1961, AID1965]. It is filed as functional.
In assay [13] the target is T6, G-protein coupled receptor 35. The assay can be described thus: SAR analysis of Antagonists of the GPR35 Receptor using an Image-Based Assay - Set 4. [Related pubchem assays (depositor defined):[…]]. It is filed as functional.
Assay [14] deals with T7, Cannabinoid receptor 2 (Homo sapiens, UniProt P34972). The assay can be described thus: SAR analysis of antagonists of the Cannabinoid Receptor 2 using an Image-Based Assay - Set 2. [Related pubchem assays (depositor defined):AID1961, AID1965]. It is filed as functional.
Assay [15] deals with T7, Cannabinoid receptor 2. The assay can be described thus: SAR analysis of agonists of the Cannabinoid Receptor 2 using an Image-Based Assay - Set 2. [Related pubchem assays (depositor defined):AID1961, AID1965]. In kind it is functional.
For assay [16], the target named is Disintegrin and metalloproteinase domain-containing protein 17 (Homo sapiens, UniProt P78536). The assay can be described thus: exosite inhibitors of ADAM17, dose response, biochemical (AID 743260).
Assay [17] addresses DNA damage-inducible transcript 3 protein (Mus musculus, UniProt P35639). In kind it is functional, Cricetulus griseus.
Assay [18] in a line: inhibition of ADAM10 peptide cleavage – biochemical, FRET peptide substrate, recombinant human ADAM10, selectivity assay for ADAM17 exosite inhibitor project, dose response (AID 743259).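 Also: ADAM10 enzyme cleaving a FRET peptide substrate.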

Activity calls are given as the source filed them. Bounds are passed on as bounds.

T6 sequence (Q9HC97 whole entry): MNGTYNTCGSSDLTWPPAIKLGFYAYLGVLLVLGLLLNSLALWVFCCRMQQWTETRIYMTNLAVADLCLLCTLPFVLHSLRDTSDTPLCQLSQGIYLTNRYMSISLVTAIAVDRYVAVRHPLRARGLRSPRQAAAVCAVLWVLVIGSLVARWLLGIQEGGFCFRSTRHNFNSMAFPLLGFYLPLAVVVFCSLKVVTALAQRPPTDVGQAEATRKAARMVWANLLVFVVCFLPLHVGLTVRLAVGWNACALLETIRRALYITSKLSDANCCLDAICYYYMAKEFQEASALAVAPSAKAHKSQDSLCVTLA
T7 sequence (P34972 whole entry): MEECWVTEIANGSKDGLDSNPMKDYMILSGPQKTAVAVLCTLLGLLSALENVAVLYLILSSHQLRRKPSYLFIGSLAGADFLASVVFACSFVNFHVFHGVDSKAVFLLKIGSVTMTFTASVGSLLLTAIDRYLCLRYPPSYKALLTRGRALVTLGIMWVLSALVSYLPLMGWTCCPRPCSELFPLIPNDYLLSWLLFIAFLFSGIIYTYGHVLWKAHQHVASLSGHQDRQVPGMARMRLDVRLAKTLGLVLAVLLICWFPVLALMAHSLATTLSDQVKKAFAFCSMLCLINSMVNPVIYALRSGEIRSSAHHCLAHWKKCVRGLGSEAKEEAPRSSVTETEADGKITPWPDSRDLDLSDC
T5 sequence (P21554 whole entry): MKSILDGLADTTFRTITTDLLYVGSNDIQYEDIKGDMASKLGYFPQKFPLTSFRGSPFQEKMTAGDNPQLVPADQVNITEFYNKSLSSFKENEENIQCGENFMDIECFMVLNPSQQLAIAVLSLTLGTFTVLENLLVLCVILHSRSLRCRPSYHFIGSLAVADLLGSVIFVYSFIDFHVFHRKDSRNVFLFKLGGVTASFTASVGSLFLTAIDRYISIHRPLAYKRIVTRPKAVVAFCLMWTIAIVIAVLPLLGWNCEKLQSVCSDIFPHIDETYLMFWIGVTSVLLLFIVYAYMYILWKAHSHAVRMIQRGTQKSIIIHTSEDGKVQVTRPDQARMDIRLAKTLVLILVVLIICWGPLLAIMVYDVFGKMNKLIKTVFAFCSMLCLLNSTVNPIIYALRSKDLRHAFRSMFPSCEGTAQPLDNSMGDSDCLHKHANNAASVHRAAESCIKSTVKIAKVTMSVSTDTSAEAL
Mu-type opioid receptor, sequence (P35372 whole entry): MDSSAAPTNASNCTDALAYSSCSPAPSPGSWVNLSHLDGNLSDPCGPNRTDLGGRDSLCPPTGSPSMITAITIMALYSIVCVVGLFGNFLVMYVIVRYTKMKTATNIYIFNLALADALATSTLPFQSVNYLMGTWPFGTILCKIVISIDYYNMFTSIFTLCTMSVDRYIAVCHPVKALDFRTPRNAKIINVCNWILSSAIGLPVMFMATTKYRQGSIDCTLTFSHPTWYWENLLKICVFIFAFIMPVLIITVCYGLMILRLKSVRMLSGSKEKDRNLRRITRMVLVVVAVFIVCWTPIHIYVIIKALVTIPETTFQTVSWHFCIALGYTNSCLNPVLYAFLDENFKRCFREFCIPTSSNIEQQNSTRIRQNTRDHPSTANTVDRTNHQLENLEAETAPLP
G-protein coupled receptor 55, sequence (Q9Y2T6 whole entry): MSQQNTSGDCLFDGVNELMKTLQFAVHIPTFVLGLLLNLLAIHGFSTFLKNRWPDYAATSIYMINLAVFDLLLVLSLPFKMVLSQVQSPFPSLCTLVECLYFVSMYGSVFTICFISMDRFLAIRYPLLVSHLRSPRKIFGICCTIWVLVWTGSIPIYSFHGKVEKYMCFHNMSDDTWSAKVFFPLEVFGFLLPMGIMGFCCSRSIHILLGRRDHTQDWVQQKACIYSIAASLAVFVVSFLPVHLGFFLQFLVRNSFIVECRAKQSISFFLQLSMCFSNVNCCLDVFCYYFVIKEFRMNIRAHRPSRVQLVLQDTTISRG
Disintegrin and metalloproteinase domain-containing protein 17, sequence (P78536 whole entry, the tested form may be a part): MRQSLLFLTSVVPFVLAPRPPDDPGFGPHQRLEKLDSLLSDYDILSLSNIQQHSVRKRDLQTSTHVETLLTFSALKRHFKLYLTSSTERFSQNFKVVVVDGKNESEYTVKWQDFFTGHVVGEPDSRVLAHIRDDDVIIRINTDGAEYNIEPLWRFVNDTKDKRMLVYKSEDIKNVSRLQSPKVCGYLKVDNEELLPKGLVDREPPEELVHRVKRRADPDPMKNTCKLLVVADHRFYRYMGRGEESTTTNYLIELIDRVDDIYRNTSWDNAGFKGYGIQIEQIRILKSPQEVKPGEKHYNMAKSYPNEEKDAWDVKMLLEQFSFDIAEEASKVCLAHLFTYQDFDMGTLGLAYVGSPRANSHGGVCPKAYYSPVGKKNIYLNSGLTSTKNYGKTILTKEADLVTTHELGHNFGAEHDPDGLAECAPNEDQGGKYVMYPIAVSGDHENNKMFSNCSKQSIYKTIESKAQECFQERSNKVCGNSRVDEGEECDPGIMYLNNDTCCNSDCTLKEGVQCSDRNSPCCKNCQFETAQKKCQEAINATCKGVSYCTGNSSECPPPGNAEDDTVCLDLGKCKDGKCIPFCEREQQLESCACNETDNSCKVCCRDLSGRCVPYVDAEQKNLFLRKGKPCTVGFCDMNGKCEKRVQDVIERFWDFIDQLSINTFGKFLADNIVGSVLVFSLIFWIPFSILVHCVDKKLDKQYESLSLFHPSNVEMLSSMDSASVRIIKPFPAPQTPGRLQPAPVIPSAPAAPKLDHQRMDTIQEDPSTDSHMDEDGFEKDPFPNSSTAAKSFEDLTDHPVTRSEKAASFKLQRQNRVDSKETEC
5-hydroxytryptamine receptor 5A, sequence (P47898 whole entry): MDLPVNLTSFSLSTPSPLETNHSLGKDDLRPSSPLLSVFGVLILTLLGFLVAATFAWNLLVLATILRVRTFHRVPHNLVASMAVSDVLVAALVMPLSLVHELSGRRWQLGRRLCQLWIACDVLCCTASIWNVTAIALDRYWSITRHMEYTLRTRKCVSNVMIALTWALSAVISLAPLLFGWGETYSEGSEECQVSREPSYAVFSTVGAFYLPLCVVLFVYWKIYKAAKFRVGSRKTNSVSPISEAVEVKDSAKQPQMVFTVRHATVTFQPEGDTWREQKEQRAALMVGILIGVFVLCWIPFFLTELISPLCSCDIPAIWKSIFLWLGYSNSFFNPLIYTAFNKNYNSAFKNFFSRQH
DNA damage-inducible transcript 3 protein, sequence (P35639 whole entry): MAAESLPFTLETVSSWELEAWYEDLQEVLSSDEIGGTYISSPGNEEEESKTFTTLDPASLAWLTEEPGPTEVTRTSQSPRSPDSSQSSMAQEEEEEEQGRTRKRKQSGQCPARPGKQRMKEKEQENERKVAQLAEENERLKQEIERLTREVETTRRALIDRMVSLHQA
Delta-type opioid receptor, sequence (P41143 whole entry): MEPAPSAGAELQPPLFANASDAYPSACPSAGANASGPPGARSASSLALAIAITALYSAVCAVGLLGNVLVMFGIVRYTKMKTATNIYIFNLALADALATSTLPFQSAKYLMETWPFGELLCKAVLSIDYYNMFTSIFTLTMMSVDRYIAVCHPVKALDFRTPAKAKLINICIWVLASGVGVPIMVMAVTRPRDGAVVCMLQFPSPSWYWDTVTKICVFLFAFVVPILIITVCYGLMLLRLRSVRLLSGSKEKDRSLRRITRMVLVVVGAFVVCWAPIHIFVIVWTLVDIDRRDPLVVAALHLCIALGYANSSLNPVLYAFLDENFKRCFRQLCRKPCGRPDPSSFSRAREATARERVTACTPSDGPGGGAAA

Consider `CN(C)CCCN(C(=O)c1ccc(S(=O)(=O)N2CCc3ccccc3C2)cc1)c1nc2ccc(F)cc2s1`, for which the values for the IC50 in assay [1] and in assay [3] were 47.9 µM (active) and > 20 µM (inactive), respectively. In addition, the cytotoxic concentration (CC50) in assay [2] was 31.1 µM (active). Further, the EC50 is > 100 µM (inactive) in assay [4]; > 92.5 µM (inactive) in assay [5]; > 92.5 µM (inactive) in assay [6]; 0.596 µM (active) in [7]; 3.28 µM (active) in assay [8].
As for `O=C(Nc1cccc(S(=O)(=O)N2CCOCC2)c1)c1ccc(N2CCCC2=O)cc1`, the EC50 is > 32 µM (inactive) in assay [9], > 32 µM (inactive) in [10], 1.37 µM (active) in assay [11] and > 32 µM (inactive) in assay [15]. In addition, the IC50 in assay [12], in [13] and in assay [14] was > 32 µM (inactive) throughout.
Take `Sc1nnc(C2CCCCC2)n1/N=C/C=C/c1ccccc1`: the IC50 in [16] was > 69.5 µM (inactive); in assay [18], 13.7 µM (inactive). For the same compound, in [17], the “Absolute IC50 (CHOP)” value worked out at 10 µM.
